Measured values from ChEMBL document CHEMBL4330134, “Design, synthesis, and bioevaluation of a novel class of (E)-4-oxo-crotonamide derivatives as potent antituberculosis agents” (Bioorg Med Chem Lett, 2019).
Values after ≈ are worked out from the molar mass of the structure shown.

Tested on: Mycobacterium tuberculosis
Assay: Antimycobacterial activity against miltidrug-resistant Mycobacterium tuberculosis
Assay type: functional

COC(=O)/C=C/C(=O)c1ccc(OC)cc1
MIC: 0.25 to 1 µg/mL (≈ 1.14 to 4.54 µM)
